Assay [1] deals with κ opioid receptor (Homo sapiens, UniProt P41145). Kind of assay: biochemical. The assay is classed as binding. More on the design: expressed in transfected cells; host or cells: HEK 293 (in-house membrane prep). The settings on record: HEK-293 or CHO cells.
Assay [2] deals with T1, μ-opioid receptor (Homo sapiens, UniProt P35372). Kind of assay: μ-opioid receptor [35S]GTPγS functional assay, U-2 OS cells. Type of assay: biochemical. More on the design: expressed in transfected cells; host or cells: U-2 OS. The note with it: for Emax: relative to DAMGO, read-out: GTPγS μ Emax.
T1 sequence (P35372 whole entry, species assumed): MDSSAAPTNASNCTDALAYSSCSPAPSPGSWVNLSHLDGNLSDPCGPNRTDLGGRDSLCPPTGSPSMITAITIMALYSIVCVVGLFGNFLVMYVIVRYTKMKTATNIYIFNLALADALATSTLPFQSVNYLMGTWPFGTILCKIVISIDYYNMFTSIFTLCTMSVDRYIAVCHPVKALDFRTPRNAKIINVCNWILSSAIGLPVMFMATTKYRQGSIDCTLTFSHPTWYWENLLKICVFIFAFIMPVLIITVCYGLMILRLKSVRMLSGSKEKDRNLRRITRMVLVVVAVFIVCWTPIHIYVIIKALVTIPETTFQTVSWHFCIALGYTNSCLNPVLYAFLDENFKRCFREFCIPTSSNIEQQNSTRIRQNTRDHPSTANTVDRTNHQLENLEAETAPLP
In assay [3] the target is T1, μ-opioid receptor. Nature of the assay: μ-opioid receptor [35S]GTPγS functional assay, HEK-293 or CHO cells. The settings on record: for Emax: read-out: GTPγS μ Emax.
The mark [4] stands for this setting: U-2 OS cells, read-out: GTPγS μ EC50.

The structures appear in SMILES notation.

Sequence of κ opioid receptor (P41145 whole entry): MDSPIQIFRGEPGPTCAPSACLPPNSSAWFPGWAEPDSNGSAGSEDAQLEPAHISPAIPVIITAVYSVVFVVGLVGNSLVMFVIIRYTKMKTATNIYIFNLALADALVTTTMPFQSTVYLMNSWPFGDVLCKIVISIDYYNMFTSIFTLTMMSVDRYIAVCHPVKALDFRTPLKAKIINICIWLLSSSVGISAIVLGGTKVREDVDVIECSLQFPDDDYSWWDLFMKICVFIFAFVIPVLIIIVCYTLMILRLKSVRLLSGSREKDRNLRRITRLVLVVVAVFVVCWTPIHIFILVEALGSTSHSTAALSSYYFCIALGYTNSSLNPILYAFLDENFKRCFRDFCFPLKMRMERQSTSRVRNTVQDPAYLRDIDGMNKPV

For the compound `COc1ccc2c(c1)[C@@]1(C)CCN(C)C(C2)C1NC(=O)/C=C/c1ccoc1` (stereo in doubt) [Compound 23, (E)-3-(furan-3-yl)-N-((2R,6R,11S)-8-methoxy-3,6-dimethyl-1,2,3,4,5,6-hexahydro-2,6-methanobenzo[d]azocin-11-yl)acrylamide], the inhibition constant (Ki) in assay [1] was found to be 13.2 µM.
Turning to `CN1CC[C@]2(C)c3cc(O)ccc3CC1C2N(C)C(=O)CCC(=O)O` (stereo in doubt) [Compound 28, 4-(((2R,6R,11S)-8-hydroxy-3,6-dimethyl-1,2,3,4,5,6-hexahydro-2,6-methanobenzo[d]azocin-11-yl)(methyl)amino)-4-oxobutanoic acid], in assay [2] (setting [4]), the EC50 came to 1.56 ± 0.106 µM. For the same compound, the Emax in assay [2] (U-2 OS cells) was 74.7 ± 4.63%. Also, the affinity in assay [1] corresponds to a Ki of 18.2 µM.
On to `CN1CC[C@]2(C)c3cc(O)ccc3CC1C2N(C)C(=O)Nc1ccc(C(=O)O)cc1` (stereo in doubt) [Compound 45, 4-(3-((2R,6R,11S)-8-hydroxy-3,6-dimethyl-1,2,3,4,5,6-hexahydro-2,6-methanobenzo[d]azocin-11-yl)-3-methylureido)benzoic acid], for which, in assay [3], the concentration giving a half-maximal response (EC50) was determined as 3.85 ± 0.839 µM and the Emax stood at 17 ± 3.06%. In addition, the inhibition constant Ki in assay [1] (bound in μM) is > 20 µM.
With `CN1CC[C@]2(C)c3cc(O)ccc3CC1C2N(C)C(=O)Nc1ccc(C(=O)O)cc1` (stereo in doubt) [Compound 46, 4-(3-((2R,6R,11R)-8-hydroxy-3,6-dimethyl-1,2,3,4,5,6-hexahydro-2,6-methanobenzo[d]azocin-11-yl)-3-methylureido)benzoic acid], in assay [3], the half-maximal effective concentration (EC50) was 13.4 ± 2.99 µM and the maximal effect (Emax) was 36.7 ± 3.18%. Besides, in assay [1] (bound in μM), the Ki is > 20 µM.
On the same counts, the results for `CN1CC[C@]2(C)c3cc(O)ccc3CC1C2N(C)C(=O)c1ccccc1C(=O)O` (stereo in doubt) [Compound 49, 2-(((2R,6R,11S)-8-hydroxy-3,6-dimethyl-1,2,3,4,5,6-hexahydro-2,6-methanobenzo[d]azocin-11-yl)(methyl)carbamoyl)benzoic acid] are > 20 µM, 31.3 ± 5.36% and > 20 µM.
With `CN1CC[C@]2(C)c3cc(O)ccc3CC1C2Nc1ccc(CCS(N)(=O)=O)cc1` (stereo in doubt) [Compound 58, 2-(4-(((2R,6R,11S)-8-hydroxy-3,6-dimethyl-1,2,3,4,5,6-hexahydro-2,6-methanobenzo[d]azocin-11-yl)amino)phenyl)ethanesulfonamide], in assay [3], the half-maximal effective concentration (EC50) amounted to 0.751 ± 0.0433 µM and the maximal effect (Emax) was 110 ± 7.55%. This compound returned an inhibition constant (Ki) in assay [1] of 0.336 ± 0.0875 µM.
The like results for `CN1CC[C@]2(C)c3cc(O)ccc3CC1C2N(C)C(=O)NCCC(=O)O` (stereo in doubt) [Compound 68, 3-(3-((2R,6R,11S)-8-hydroxy-3,6-dimethyl-1,2,3,4,5,6-hexahydro-2,6-methanobenzo[d]azocin-11-yl)-3-methylureido)propanoic acid] were, in that order, 0.55 ± 0.0316 µM, 98 ± 1.73% and 0.799 ± 0.0982 µM.
Take `CN(C)C(=O)C(CCN1CC[C@]2(C)c3cc(O)ccc3CC1C2N(C)C(=O)Nc1ccc(C#N)cc1)(c1ccccc1)c1ccccc1` (stereo in doubt) [Compound 84, 4-((2R,6R,11S)-11-(3-(4-cyanophenyl)-1-methylureido)-8-hydroxy-6-methyl-1,2,5,6-tetrahydro-2,6-methanobenzo[d]azocin-3(4H)-yl)-N,N-dimethyl-2,2-diphenylbutanamide]: the EC50 in assay [2] (setting [4]) was determined as 0.0839 ± 0.0133 µM. Moreover, the maximal response (Emax) in assay [2] (U-2 OS cells) amounted to 90.7 ± 1.86%. This compound showed a Ki in assay [1] of 0.269 ± 0.0277 µM.
For `CN[C@@H]1C2Cc3ccc(OC)cc3[C@@]1(C)CCN2C` [Compound 8, (6R,11S)-8-methoxy-N,3,6-trimethyl-1,2,3,4,5,6-hexahydro-2,6-methanobenzo[d]azocin-11-amine], the Ki in assay [1] (bound in μM) is > 20 µM.
Take `CN[C@H]1C2Cc3ccc(OC)cc3[C@@]1(C)CCN2C` [Compound 9, (6R,11R)-8-methoxy-N,3,6-trimethyl-1,2,3,4,5,6-hexahydro-2,6-methanobenzo[d]azocin-11-amine]: in assay [1], the Ki worked out at 18.9 ± 3.13 µM.
Still for that read-out and setting: under `CON=C1C2Cc3ccc(OC)cc3C1(C)CCN2CC1CC1` (stereo not shown) [Compound 10, 3-(cyclopropylmethyl)-8-methoxy-6-methyl-1,2,3,4,5,6-hexahydro-2,6-methanobenzo[d]azocin-11-one O-methyl Oxime] stands 2.14 ± 0.151 µM.
As to `COc1ccc2c(c1)[C@@]1(C)CCN(C)C(C2)[C@@H]1CO` [Compound 11, ((6S,11R)-8-methoxy-3,6-dimethyl-1,2,3,4,5,6-hexahydro-2,6-methanobenzo[d]azocin-11-yl)methanol], in assay [1] (bound in μM), the Ki was > 20 µM.
For `CCOC(=O)/C=C1\C2Cc3ccc(OC)cc3C1(C)CCN2C` (stereo not shown) [Compound 12], in assay [1] (bound in μM), the Ki is > 20 µM.
For `COc1ccc2c(c1)C1(C)CCN(C)C(C2)/C1=C\C(=O)O` (stereo not shown) [Compound 13, (Z)-2-(8-methoxy-3,6-dimethyl-1,2,3,4,5,6-hexahydro-2,6-methanobenzo[d]azocin-11-ylidene)acetic acid], the inhibition constant (Ki) in assay [1] (bound in μM) was > 20 µM.
With `CCOC(=O)C[C@H]1C2Cc3ccc(OC)cc3[C@@]1(C)CCN2C` [Compound 14, ethyl 2-((6S,11R)-8-methoxy-3,6-dimethyl-1,2,3,4,5,6-hexahydro-2,6-methanobenzo[d]azocin-11-yl)acetate], the affinity in assay [1], expressed as Ki, was 14.3 µM.
Consider `COc1ccc2c(c1)[C@@]1(C)CCN(C)C(C2)[C@@H]1CC(=O)O` [Compound 15, 2-((6S,11R)-8-methoxy-3,6-dimethyl-1,2,3,4,5,6-hexahydro-2,6-methanobenzo[d]azocin-11-yl)acetic acid], for which the inhibition constant (Ki) in assay [1] (bound in μM) is > 20 µM.
`CN1CCC2(C)C(=NO)C1Cc1ccc(O)cc12` (stereo not shown) [Compound 18, 8-hydroxy-3,6-dimethyl-1,2,3,4,5,6-hexahydro-2,6-methanobenzo[d]azocin-11-one oxime] came in with a Ki in assay [1] of 5.58 ± 1.01 µM.
On the same count and under the same terms, under `COc1ccc2c(c1)C1(C)CCN(CCC(C(=O)N(C)C)(c3ccccc3)c3ccccc3)C(C2)C1=NO` (stereo not shown) [Compound 19, 4-(11-(hydroxyimino)-8-methoxy-6-methyl-1,2,5,6-tetrahydro-2,6-methanobenzo[d]azocin-3(4H)-yl)-N,N-dimethyl-2,2-diphenylbutanamide] stands 8.52 ± 0.605 µM; under `COc1ccc2c(c1)[C@@]1(C)CCN(C)C(C2)[C@H]1N(C)C(=O)/C=C/c1ccoc1` [Compound 20, (E)-3-(furan-3-yl)-N-((6R,11S)-8-methoxy-3,6-dimethyl-1,2,3,4,5,6-hexahydro-2,6-methanobenzo[d]azocin-11-yl)-N-methylacrylamide], 1.95 ± 0.538 µM; under `CN(C)C(=O)C(CCN1CC[C@]2(C)c3cc(O)ccc3CC1[C@@H]2O)(c1ccccc1)c1ccccc1` [Compound 21, 4-((6R,11R)-8,11-dihydroxy-6-methyl-1,2,5,6-tetrahydro-2,6-methanobenzo[d]azocin-3(4H)-yl)-N,N-dimethyl-2,2-diphenylbutanamide], 1.22 ± 0.332 µM.
In assay [2] (GTPγS μ EC50, U-2 OS cells), `COc1ccc2c(c1)[C@@]1(C)CCN(C)[C@@H](C2)C1=NNC(=O)c1ccc(F)cc1` [Compound 26, 4-fluoro-N′-((2S,6R)-8-methoxy-3,6-dimethyl-1,2,3,4,5,6-hexahydro-2,6-methanobenzo[d]azocin-11-ylidene)benzohydrazide] registered a 50% effective concentration (EC50) of 1.19 ± 0.0939 µM. For the same compound, the maximum response (Emax) in assay [2] (U-2 OS cells) came out at 91 ± 7.09%. Also, the Ki in assay [1] (bound in μM) was > 20 µM.
For the compound `CN1CC[C@]2(C)c3cc(O)ccc3C[C@@H]1[C@H]2COc1cncc(C(=O)O)c1` [Compound 33, 5-(((2R,6S,11S)-8-hydroxy-3,6-dimethyl-1,2,3,4,5,6-hexahydro-2,6-methanobenzo[d]azocin-11-yl)methoxy)nicotinic acid], in assay [3], the EC50 came to 2.45 ± 0.167 µM and the maximal response (Emax) stood at 49 ± 3.67%. The compound further showed a Ki in assay [1] of 2.84 ± 0.342 µM.
On the same counts, the results for `CN1CC[C@]2(C)c3cc(O)ccc3CC1[C@@H]2COc1cncc(C(=O)O)c1` [Compound 34, 5-(((6S,11R)-8-hydroxy-3,6-dimethyl-1,2,3,4,5,6-hexahydro-2,6-methanobenzo[d]azocin-11-yl)methoxy)nicotinic acid] are 3.64 ± 0.373 µM, 16 ± 3.46% and 5.99 ± 0.604 µM.
For the compound `CN1CC[C@]2(C)c3cc(O)ccc3C[C@@H]1[C@H]2N(C)C(=O)Nc1ccc(C#N)cc1` [Compound 79, 3-(4-cyanophenyl)-1-((2R,6R,11S)-8-hydroxy-3,6-dimethyl-1,2,3,4,5,6-hexahydro-2,6-methanobenzo[d]azocin-11-yl)-1-methylurea], in assay [2] (setting [4]), the EC50 turned out to be 2.2 ± 0.668 µM. Besides, in assay [2] (U-2 OS cells), the maximal effect (Emax) worked out at 49 ± 3.46%. Also, the affinity in assay [1], expressed as Ki, was 3.14 ± 0.805 µM.
As for `COc1ccc2c(c1)[C@@]1(C)CCN(CC3CC3)C(C2)[C@H]1N(C)C(=O)Nc1ccc(C(N)=O)cc1` [Compound 82], the EC50 in assay [2] (U-2 OS cells, bound in μM, read-out: GTPγS μ EC50) was > 20 µM. Besides, the Emax in assay [2] (U-2 OS cells) was determined as 31.7 ± 5.36%. The affinity in assay [1] corresponds to a Ki of 10.2 µM.
Turning to `COc1ccc2c(c1)[C@@]1(C)CCN(CC3CC3)[C@H](C2)[C@H]1N(C)C(=O)/C=C/c1ccoc1` [Compound 85, (E)-N-((2R,6R,11S)-3-(cyclopropylmethyl)-8-methoxy-6-methyl-1,2,3,4,5,6-hexahydro-2,6-methanobenzo[d]azocin-11-yl)-3-(furan-3-yl)-N-methylacrylamide], in assay [2] (setting [4]), the concentration giving a half-maximal response (EC50) came to 3.24 ± 0.77 µM. The maximum response (Emax) in assay [2] (U-2 OS cells) came to 19.3 ± 2.33%. In assay [1], this compound registered an inhibition constant Ki of 0.701 ± 0.0941 µM.
With `COc1ccc2c(c1)[C@@]1(C)CCN(CC3CC3)[C@H](C2)[C@H]1N(C)C(=O)/C=C\c1ccoc1` [Compound 86, (Z)—N-((2R,6R,11S)-3-(cyclopropylmethyl)-8-methoxy-6-methyl-1,2,3,4,5,6-hexahydro-2,6-methanobenzo[d]azocin-11-yl)-3-(furan-3-yl)-N-methylacrylamide], in assay [2] (setting [4]), the EC50 amounted to 2.15 ± 0.21 µM. Further, the maximal response (Emax) in assay [2] (U-2 OS cells) is 14.7 ± 0.88%. In assay [1], this compound returned an inhibition constant Ki of 0.979 ± 0.146 µM.

For orientation: Ki means a measure of affinity in units of concentration, obtained from inhibition or displacement. Lower therefore signals tighter binding. One may read the EC50 as the concentration giving half of the maximal effect. What is called Emax is the maximal effect, on the per cent scale that the assay sets.

The record behind these values is patent US10138207B2, “Benzomorphan analogs and the use thereof” (priority 2012, dated 2018).
